What was measured:
[1] = excess molar enthalpy (molar enthalpy of mixing); xn = mol fraction of the nth substance listed; conditions: 308.15 K, Liquid, Calvet calorimetry
[2] = molar heat capacity at constant pressure; xn = mol fraction of the nth substance listed; conditions: 100 kPa, Liquid

O=C1CCCCCC1 [cycloheptanone] + C1CCOCC1
[1], 1e-07 kPa
Conditions | excess molar enthalpy [kJ/mol]
x2 = 0.0898 | 0.0549
x2 = 0.1356 | 0.0749
x2 = 0.1846 | 0.0896
x2 = 0.2366 | 0.104
x2 = 0.2882 | 0.114
x2 = 0.3312 | 0.119
x2 = 0.3942 | 0.123
x2 = 0.4412 | 0.125
x2 = 0.4895 | 0.124
x2 = 0.5326 | 0.123
x2 = 0.5842 | 0.12
x2 = 0.6335 | 0.116
x2 = 0.6875 | 0.109
x2 = 0.7289 | 0.102
x2 = 0.7789 | 0.092
x2 = 0.8278 | 0.0774
x2 = 0.8799 | 0.0612
x2 = 0.9199 | 0.0434

molar heat capacity at constant pressure [J/K/mol], [2], Extra sensitive DSC
Conditions | 293.15 K | 298.15 K | 303.15 K | 308.15 K
x2 = 0.1121 | 196.3 | 197.43 | 198.93 | 200.52
x2 = 0.1652 | 194.07 | 195.27 | 196.82 | 198.49
x2 = 0.2103 | 192.18 | 193.43 | 195.03 | 196.74
x2 = 0.2652 | 189.86 | 191.15 | 192.76 | 194.53
x2 = 0.3187 | 187.56 | 188.91 | 190.53 | 192.28
x2 = 0.3562 | 185.92 | 187.28 | 188.93 | 190.71
x2 = 0.4036 | 183.78 | 185.22 | 186.84 | 188.65
x2 = 0.4562 | 181.33 | 182.82 | 184.44 | 186.27
x2 = 0.4921 | 179.6 | 181.13 | 182.76 | 184.65
x2 = 0.5341 | 177.51 | 179.07 | 180.74 | 182.63
x2 = 0.5896 | 174.63 | 176.29 | 177.96 | 179.93
x2 = 0.6231 | 172.8 | 174.52 | 176.25 | 178.18
x2 = 0.6741 | 169.93 | 171.69 | 173.45 | 175.49
x2 = 0.7256 | 166.92 | 168.74 | 170.53 | 172.58
x2 = 0.7769 | 163.72 | 165.58 | 167.38 | 169.46
x2 = 0.8321 | 160.14 | 162 | 163.83 | 165.92
x2 = 0.8754 | 157.18 | 159.06 | 160.84 | 162.89
x2 = 0.9365 | 152.82 | 154.62 | 156.31 | 158.31

O=C1CCCCCC1 [cycloheptanone] + C1COCCO1
[1], 100 kPa
Conditions | excess molar enthalpy [kJ/mol]
x2 = 0.0726 | 0.0304
x2 = 0.1258 | 0.0496
x2 = 0.1769 | 0.0643
x2 = 0.2252 | 0.0783
x2 = 0.2786 | 0.0891
x2 = 0.3286 | 0.0979
x2 = 0.3746 | 0.103
x2 = 0.4282 | 0.107
x2 = 0.4712 | 0.108
x2 = 0.5232 | 0.106
x2 = 0.5725 | 0.103
x2 = 0.6235 | 0.0975
x2 = 0.6762 | 0.0889
x2 = 0.7256 | 0.0799
x2 = 0.7716 | 0.0694
x2 = 0.8125 | 0.0589
x2 = 0.8682 | 0.0423
x2 = 0.9129 | 0.0293

molar heat capacity at constant pressure [J/K/mol], [2], Extra sensitive DSC
Conditions | 293.15 K | 298.15 K | 303.15 K | 308.15 K
x2 = 0.0943 | 199.36 | 200.68 | 202.21 | 203.95
x2 = 0.1587 | 198.02 | 199.53 | 201.25 | 203.14
x2 = 0.2016 | 197.04 | 198.63 | 200.42 | 202.4
x2 = 0.2574 | 195.59 | 197.23 | 199.23 | 201.2
x2 = 0.3025 | 194.28 | 196 | 197.99 | 200.03
x2 = 0.3412 | 193.02 | 194.78 | 196.83 | 198.81
x2 = 0.3986 | 190.94 | 192.67 | 194.91 | 196.9
x2 = 0.4215 | 189.98 | 191.84 | 194.03 | 196.02
x2 = 0.4796 | 187.51 | 189.28 | 191.5 | 193.56
x2 = 0.5213 | 185.45 | 187.35 | 189.58 | 191.52
x2 = 0.5743 | 182.67 | 184.52 | 186.79 | 188.83
x2 = 0.6142 | 180.46 | 182.26 | 184.49 | 186.55
x2 = 0.6687 | 177.12 | 178.92 | 181.02 | 183.16
x2 = 0.7149 | 174.07 | 175.86 | 177.95 | 180.03
x2 = 0.7623 | 170.7 | 172.51 | 174.5 | 176.57
x2 = 0.8169 | 166.69 | 168.4 | 170.24 | 172.25
x2 = 0.8654 | 162.9 | 164.56 | 166.21 | 168.11
x2 = 0.9149 | 158.86 | 160.38 | 161.87 | 163.59

O=C1CCCCC1 [cyclohexanone] + C1CCOCC1
[1], 100 kPa
Conditions | excess molar enthalpy [kJ/mol]
x2 = 0.0989 | 0.041
x2 = 0.1475 | 0.0584
x2 = 0.1926 | 0.0712
x2 = 0.2415 | 0.086
x2 = 0.2953 | 0.0968
x2 = 0.3416 | 0.106
x2 = 0.3952 | 0.112
x2 = 0.4426 | 0.115
x2 = 0.4956 | 0.116
x2 = 0.5425 | 0.114
x2 = 0.5982 | 0.107
x2 = 0.641 | 0.102
x2 = 0.6825 | 0.0948
x2 = 0.7333 | 0.0835
x2 = 0.7865 | 0.0697
x2 = 0.8359 | 0.0553
x2 = 0.8875 | 0.0389
x2 = 0.9299 | 0.0241

molar heat capacity at constant pressure [J/K/mol], [2], Extra sensitive DSC
Conditions | 293.15 K | 298.15 K | 303.15 K | 308.15 K
x2 = 0.0995 | 176.32 | 178.62 | 180.9 | 183.36
x2 = 0.1452 | 175.99 | 178.41 | 181.03 | 183.58
x2 = 0.1965 | 175.76 | 178.4 | 181.02 | 183.49
x2 = 0.2456 | 175.65 | 178.24 | 180.93 | 183.53
x2 = 0.2863 | 175.47 | 178.06 | 180.64 | 183.3
x2 = 0.3321 | 175.13 | 177.68 | 180.22 | 182.87
x2 = 0.3845 | 174.53 | 177.03 | 179.51 | 182.09
x2 = 0.4215 | 173.95 | 176.42 | 178.92 | 181.49
x2 = 0.4723 | 172.86 | 175.29 | 177.75 | 180.31
x2 = 0.5241 | 171.58 | 173.99 | 176.42 | 178.98
x2 = 0.5796 | 169.75 | 172.22 | 174.56 | 177.13
x2 = 0.6153 | 168.49 | 170.9 | 173.23 | 175.87
x2 = 0.6654 | 166.35 | 168.77 | 171.21 | 173.73
x2 = 0.7132 | 164.19 | 166.61 | 168.92 | 171.57
x2 = 0.7698 | 161.26 | 163.68 | 165.99 | 168.56
x2 = 0.8265 | 158.18 | 160.54 | 162.79 | 165.3
x2 = 0.8732 | 155.48 | 157.76 | 159.9 | 162.31
x2 = 0.9245 | 152.46 | 154.55 | 156.51 | 158.75

O=C1CCCCC1 [cyclohexanone] + C1COCCO1
Conditions | excess molar enthalpy, 100 kPa [kJ/mol] | molar heat capacity at constant pressure, 293.15 K [J/K/mol] | molar heat capacity at constant pressure, 298.15 K [J/K/mol] | molar heat capacity at constant pressure, 303.15 K [J/K/mol] | molar heat capacity at constant pressure, 308.15 K [J/K/mol]
[1], x2 = 0.0792 | 0.0817 | – | – | – | –
[1], x2 = 0.1286 | 0.124 | – | – | – | –
[1], x2 = 0.1749 | 0.16 | – | – | – | –
[1], x2 = 0.2236 | 0.192 | – | – | – | –
[1], x2 = 0.2743 | 0.22 | – | – | – | –
[1], x2 = 0.3289 | 0.245 | – | – | – | –
[1], x2 = 0.3729 | 0.262 | – | – | – | –
[1], x2 = 0.4298 | 0.279 | – | – | – | –
[1], x2 = 0.4715 | 0.287 | – | – | – | –
[1], x2 = 0.5242 | 0.293 | – | – | – | –
[1], x2 = 0.5735 | 0.293 | – | – | – | –
[1], x2 = 0.6199 | 0.289 | – | – | – | –
[1], x2 = 0.7182 | 0.262 | – | – | – | –
[1], x2 = 0.7628 | 0.241 | – | – | – | –
[1], x2 = 0.8193 | 0.205 | – | – | – | –
[1], x2 = 0.8672 | 0.165 | – | – | – | –
[1], x2 = 0.9173 | 0.113 | – | – | – | –
[2], x2 = 0.0799 | – | 173.61 | 175.65 | 177.71 | 179.75
[2], x2 = 0.1351 | – | 171.94 | 173.94 | 175.96 | 177.96
[2], x2 = 0.1965 | – | 170.17 | 172.12 | 174.08 | 176.03
[2], x2 = 0.2378 | – | 169.01 | 170.93 | 172.86 | 174.77
[2], x2 = 0.2874 | – | 167.66 | 169.54 | 171.43 | 173.28
[2], x2 = 0.3258 | – | 166.66 | 168.49 | 170.34 | 172.17
[2], x2 = 0.3642 | – | 165.66 | 167.46 | 169.27 | 171.07
[2], x2 = 0.4195 | – | 164.26 | 166.02 | 167.78 | 169.52
[2], x2 = 0.4625 | – | 163.21 | 164.92 | 166.62 | 168.33
[2], x2 = 0.5061 | – | 162.15 | 163.82 | 165.49 | 167.15
[2], x2 = 0.5543 | – | 161.01 | 162.63 | 164.25 | 165.88
[2], x2 = 0.6023 | – | 159.9 | 161.47 | 163.05 | 164.62
[2], x2 = 0.6487 | – | 158.83 | 160.36 | 161.9 | 163.44
[2], x2 = 0.6946 | – | 157.82 | 159.29 | 160.78 | 162.27
[2], x2 = 0.7412 | – | 156.79 | 158.22 | 159.66 | 161.12
[2], x2 = 0.7845 | – | 155.87 | 157.25 | 158.66 | 160.06
[2], x2 = 0.8398 | – | 154.71 | 156.04 | 157.39 | 158.74
[2], x2 = 0.8975 | – | 153.56 | 154.82 | 156.1 | 157.39

Reference: the NIST ThermoML archive (doi:10.1021/acs.jced.6b00606)
